From PubChem BioAssay (NCI)
Where “and” joins values, the source holds several entries; their conditions need not be identical. Identical values can stand only once.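 Each compound was tested at five concentrations against cells in 96-well plates for 48 hours. Abbreviation: GI50, concentration required for 50% inhibition of growth. TGI: concentration producing complete growth inhibition.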

Columns and labels:
Assay in all cases: inhibition of tumour cell growth, NCI panel, 48 h
786-0 renal = tested on: 786-0 renal
A498 renal = tested on: A498 renal
ACHN renal = tested on: ACHN renal
COLO 205 colon = tested on: COLO 205 colon
HS 578T breast = tested on: HS 578T breast
IGROV1 ovarian = tested on: IGROV1 ovarian
K-562 leukemia = tested on: K-562 leukemia
MDA-MB-435 = tested on: MDA-MB-435
NCI-H23 lung = tested on: NCI-H23 lung
OVCAR-3 ovarian = tested on: OVCAR-3 ovarian
SK-MEL-2 melanoma = tested on: SK-MEL-2 melanoma
SNB-75 CNS = tested on: SNB-75 CNS
SW-620 colon = tested on: SW-620 colon
UACC-62 melanoma = tested on: UACC-62 melanoma
SK-OV-3 ovarian = tested on: SK-OV-3 ovarian

SMILES | TGI (786-0 renal) | TGI (A498 renal) | TGI (ACHN renal) | TGI (COLO 205 colon) [µM] | TGI (HS 578T breast) | TGI (IGROV1 ovarian) | TGI (K-562 leukemia) | TGI (MDA-MB-435) | TGI (NCI-H23 lung) | TGI (OVCAR-3 ovarian) | TGI (SK-MEL-2 melanoma) | TGI (SNB-75 CNS) [µM] | TGI (SW-620 colon) [µM] | TGI (UACC-62 melanoma) | TGI (SK-OV-3 ovarian) [µM] | GI50 (COLO 205 colon) [µM] | GI50 (IGROV1 ovarian) | GI50 (K-562 leukemia) | GI50 (SNB-75 CNS) | GI50 (UACC-62 melanoma)
N/C1=C/C(=O)NC(=O)c2c(c3ccccc3oc2=O)C1 | > 100 µM | > 100 µM | > 100 µM | > 100 | > 100 µM | > 100 µM | > 100 µM | > 100 µM | > 100 µM | > 100 µM | > 100 µM | > 100 | > 100 | > 100 µM |  |  |  |  |  | 
Brc1cccc(C2ON=C(c3ccccc3)N2C23CC4CC(CC(C4)C2)C3)c1 (configuration not stated) | > 10 µM | > 10 µM | > 10 µM | > 10 | > 10 µM | > 10 µM | > 10 µM | > 10 µM | > 10 µM | > 10 µM | > 10 µM | > 10 | > 10 | > 10 µM | > 10 |  |  |  |  | 
CC(C)=CC(=O)c1[nH]c2ccccc2c1CC(=O)NCCc1cncn1C | > 100 µM | 91.9 µM | > 100 µM | 79.6 | > 100 µM | > 100 µM | > 100 µM | > 100 µM | > 100 µM | > 100 µM | > 100 µM | > 100 | > 100 | > 100 µM | > 100 |  |  |  |  | 
CCc1c(-c2ccc(OC)cc2)oc(OC)c(C)c1=O | > 100 µM | > 100 µM | > 100 µM | > 100 | > 100 µM | > 100 µM | > 100 µM | > 100 µM | > 100 µM | > 100 µM | > 100 µM | > 100 | > 100 | > 100 µM | > 100 |  |  |  |  | 
Cn1c(=O)c2c(nc3sc4ccccc4c(=O)n32)n(C)c1=O | > 100 µM | > 100 µM | > 100 µM | > 100 | > 100 µM | > 100 µM | > 100 µM | > 100 µM | > 100 µM | > 100 µM | > 100 µM | > 100 | > 100 | > 100 µM | > 100 |  |  |  |  | 
O=C(Cn1c(C(=O)c2ccccc2)nc2ccccc21)c1ccccc1 | > 100 µM | > 100 µM | > 100 µM | > 100 | > 100 µM | > 31.6 µM |  | > 100 µM | > 100 µM | > 100 µM | > 100 µM | > 100 | > 100 | > 100 µM | > 100 |  |  |  |  | 
CN(C)c1ccc(/C=C/c2sc3ccccc3[n+]2C)cc1 | 14.9 µM and > 100 µM | 26.2 µM and 32.7 µM | 9.85 µM and 7.49 µM | 0.377 | 36.8 µM and 46.1 µM | 19.7 µM and 15.3 µM | 4.26 µM and 26.2 µM | 5.64 µM and 3.94 µM | 8.47 µM and 16.7 µM | 3.82 µM and 2.86 µM | 8.88 µM and 5.81 µM |  |  | 17 µM and 5.87 µM | 17.1 | 0.185 | 4.29 µM and 1.21 µM | 0.515 µM and 0.856 µM | 0.35 µM and 2.3 µM | 3.87 µM and 1.48 µM
Cn1cc(S(=O)(=O)NC(=O)Nc2ccc(Cl)cc2)c(=O)c2ccc(F)cc21 | > 100 µM | > 100 µM | > 100 µM | > 100 | > 100 µM | > 100 µM | > 100 µM | > 100 µM | > 100 µM |  | > 100 µM | > 100 | > 100 | 63.4 µM | > 100 |  |  |  |  | 
C=C1C(=O)O[C@H]2C[C@@H]1[C@@H](O)[C@H](O)[C@@H](C)CCCC(C)=CCC[C@@]2(C)O | 52 µM | > 100 µM | 27.8 µM | 28.2 | 43.9 µM | > 100 µM | > 100 µM | > 100 µM | 42.7 µM | 28.5 µM | 41.2 µM | > 100 |  | 49.2 µM | > 100 |  |  |  |  | 
O=C(O)c1nc2ccc(C(F)(F)F)cc2nc1Nc1ccc(F)cc1 | 54.5 µM | 37.6 µM | > 100 µM | 44.1 | 96.4 µM | 62.6 µM | 43.4 µM | 44.7 µM | 37.6 µM | 60.8 µM | 34.8 µM | 60 | 82.2 | 27.9 µM |  |  |  |  |  | 
Cc1c2c(n(CC(c3ccccc3)c3ccccc3)c1C)NN=C(C#N)S2(=O)=O | > 100 µM | > 100 µM | > 100 µM | > 100 | > 100 µM | > 100 µM |  | > 100 µM | > 100 µM | > 100 µM | > 100 µM | > 100 | > 100 | > 100 µM | > 100 |  |  |  |  | 
O=C(Nc1ccc(S(=O)(=O)/N=c2\ncccn2C(=O)C(C(F)(F)F)C(F)(F)F)cc1)C(C(F)(F)F)C(F)(F)F | > 100 µM | > 100 µM | > 100 µM | > 100 | > 100 µM | > 100 µM | > 100 µM | > 100 µM | > 100 µM | > 100 µM | > 100 µM | > 100 |  | > 100 µM | > 100 |  |  |  |  | 
CCC(C)C1=C(O)[N+]2([O-])Oc3ccc(-c4c(O)c(O)c(-c5ccc(OC(C)=O)cc5)c(OC(C)=O)c4OC(C)=O)cc3OC2(C(C)CC)C(=O)N1O (configuration not stated) | > 50 µM | > 50 µM | > 50 µM | > 50 | > 50 µM | > 50 µM | 49.1 µM and > 50 µM | > 50 µM | > 50 µM | > 50 µM | > 50 µM |  | > 50 | > 50 µM | > 50 |  |  |  |  | 
Nc1nc(Cl)c(Cl)c(NCC2(O)CCC2)n1 | > 100 µM | 97 µM | > 100 µM |  | > 100 µM | > 100 µM | > 100 µM | > 100 µM | > 100 µM | > 100 µM | > 100 µM | > 100 | > 100 | > 100 µM | > 100 |  |  |  |  | 
COC(=O)C1(SC)C2CCC3C2CCC31 (configuration not stated) | > 100 µM | > 100 µM | > 100 µM | > 100 | > 100 µM | > 100 µM | > 100 µM | > 100 µM | > 100 µM | > 100 µM | > 100 µM | > 100 | > 100 |  | > 100 |  |  |  |  | 
CC1(C)OC2OC(C(COS(=O)(=O)C(F)(F)F)N=[N+]=[N-])C(OC(=O)c3ccccc3)C2O1 (configuration not stated) | > 100 µM | > 100 µM | > 100 µM | > 100 | > 100 µM |  | > 100 µM | > 100 µM | > 100 µM | > 100 µM | > 100 µM | > 100 | > 100 | > 100 µM | > 100 |  |  |  |  | 
